Where a name gives a salt, the structure may show the parent alone.

For the compound `O=C(NC1CCC1)c1ccc(-c2ccc3c(c2)CCN([C@@H]2CCN(C4CCC4)C2)C3=O)c(F)c1` (as salt: hydrochloride) [Example 74, N-cyclobutyl-4-{2-[(3R)-1-cyclobutylpyrrolidin-3-yl]-1-oxo-1,2,3,4-tetrahydroisoquinolin-6-yl}-3-fluorobenzamide], the melting point is > 230 °C. Compound `CNC(=O)c1ccc(-c2ccc3c(c2)CCN([C@@H]2CCN(C4CCC4)C2)C3=O)c(F)c1` (as salt: hydrochloride) [Example 75, 4-{2-[(3R)-1-cyclobutylpyrrolidin-3-yl]-1-oxo-1,2,3,4-tetrahydroisoquinolin-6-yl}-3-fluoro-N-methylbenzamide] returned a melting point of 220 to 221 °C. In the case of `C[C@@H]1CCCN1C(=O)c1ccc(-c2ccc3c(c2)CCN([C@@H]2CCN(C4CCC4)C2)C3=O)c(F)c1` (as salt: hydrochloride) [Example 76, 2-[(3R)-1-cyclobutylpyrrolidin-3-yl]-6-(2-fluoro-4-{[(2R)-2-methylpyrrolidin-1-yl]carbonyl}phenyl)-3,4-dihydroisoquinolin-1(2H)-one], the melting point was in the range of 239 to 241 °C. `CCNC(=O)c1ccc(-c2ccc3c(c2)CCN([C@@H]2CCN(C4CCC4)C2)C3=O)c(F)c1` (as salt: hydrochloride) [Example 77, 4-{2-[(3R)-1-cyclobutylpyrrolidin-3-yl]-1-oxo-1,2,3,4-tetrahydroisoquinolin-6-yl}-N-ethyl-3-fluorobenzamide]: the melting point was > 205 °C. Consider `CN(C)C(=O)c1ccc(-c2ccc3c(c2)CCN([C@@H]2CCN(C4CCC4)C2)C3=O)c(F)c1` (as salt: hydrochloride) [Example 78, 4-{2-[(3R)-1-cyclobutylpyrrolidin-3-yl]-1-oxo-1,2,3,4-tetrahydroisoquinolin-6-yl}-3-fluoro-N,N-dimethylbenzamide], for which the melting point lay within 209 to 210 °C. For `O=C(c1ccc(-c2ccc3c(c2)CCN([C@@H]2CCN(C4CCC4)C2)C3=O)c(F)c1)N1CCCC1` (as salt: hydrochloride) [Example 79, 2-[(3R)-1-cyclobutylpyrrolidin-3-yl]-6-[2-fluoro-4-(pyrrolidin-1-ylcarbonyl)phenyl]-3,4-dihydroisoquinolin-1(2H)-one], the melting point fell in the range of 211 to 212 °C. For `O=C(NC1CC1)c1ccc(-c2ccc3c(c2)CCN([C@@H]2CCN(C4CCC4)C2)C3=O)c(F)c1` (as salt: hydrochloride) [Example 81, 4-{2-[(3R)-1-cyclobutylpyrrolidin-3-yl]-1-oxo-1,2,3,4-tetrahydroisoquinolin-6-yl}-N-cyclopropyl-3-fluorobenzamide], the melting point was > 200 °C.

Take `CNC(=O)c1ccc(-c2ccc3c(c2)CCN([C@@H]2CCN(C(C)C)C2)C3=O)cc1` (as salt: hydrochloride) [Example 82]: the melting point is > 275 °C. As for `CCNC(=O)c1ccc(-c2ccc3c(c2)CCN([C@@H]2CCN(C(C)C)C2)C3=O)cc1` (as salt: hydrochloride) [Example 83, N-ethyl-4-{2-[(3R)-1-isopropylpyrrolidin-3-yl]-1-oxo-1,2,3,4-tetrahydroisoquinolin-6-yl}benzamide], the melting point was > 270 °C. In turn, `CC(C)N1CC[C@@H](N2CCc3cc(-c4ccc(C(=O)N5CCCC5)cc4F)ccc3C2=O)C1` (as salt: hydrochloride) [Example 84, 6-[2-fluoro-4-(pyrrolidin-1-ylcarbonyl)phenyl]-2-[(3R)-1-isopropylpyrrolidin-3-yl]-3,4-dihydroisoquinolin-1(2H)-one] gave a melting point of 249 to 250 °C. For the compound `CNC(=O)c1ccc(-c2ccc3c(c2)CCN([C@@H]2CCN(C(C)C)C2)C3=O)c(F)c1` (as salt: hydrochloride) [Example 85, 3-fluoro-4-{2-[(3R)-1-isopropylpyrrolidin-3-yl]-1-oxo-1,2,3,4-tetrahydroisoquinolin-6-yl}-N-methylbenzamide], the melting point is 245 to 247 °C.

`CCNC(=O)c1ccc(-c2ccc3c(c2)CCN([C@@H]2CCN(C(C)C)C2)C3=O)c(F)c1` (as salt: hydrochloride) [Example 86, N-ethyl-3-fluoro-4-{2-[(3R)-1-isopropylpyrrolidin-3-yl]-1-oxo-1,2,3,4-tetrahydroisoquinolin-6-yl}benzamide]: the melting point is > 255 °C.

`O=C(NC1CCCC1)c1ccc2c(c1)CCN([C@@H]1CCN(C3CCC3)C1)C2=O` (as salt: hydrochloride) [Example 88, 2-[(3R)-1-cyclobutylpyrrolidin-3-yl]-N-cyclopentyl-1-oxo-1,2,3,4-tetrahydroisoquinoline-6-carboxamide hydrochloride] displayed a melting point of 124 to 125 °C.

For the compound `O=C1NCCc2cc(-c3ccc4c(c3)CCN([C@@H]3CCN(C5CCC5)C3)C4=O)ccc21` (as salt: hydrochloride) [Example 89, (R)-2-(1-cyclobutylpyrrolidin-3-yl)-3,3′,4,4′-tetrahydro-6,6′-biisoquinoline-1,1′(2H,2′H)-dione hydrochloride], the melting point is > 274 °C.

The compound `CNC(=O)c1ccc(-c2ccc3c(c2)CN([C@@H]2CCN(C4CCC4)C2)C3=O)cc1` (as salt: hydrochloride) [Example 91, (R)-4-(2-(1-cyclobutylpyrrolidin-3-yl)-1-oxoisoindolin-5-yl)-N-methylbenzamide hydrochloride] showed a melting point of 207 to 208 °C. `O=C(c1ccc(-c2ccc3c(c2)CN([C@@H]2CCN(C4CCC4)C2)C3=O)cc1)N1CCCC1` (as salt: hydrochloride) [Example 92, (R)-2-(1-cyclobutylpyrrolidin-3-yl)-5-(4-(pyrrolidine-1-carbonyl)-phenyl)isoindolin-1-one hydrochloride] displayed a melting point of 220 to 221 °C. The value for `O=C(c1ccc(-c2ccc3c(c2)CCN(C2CCN(Cc4ccccc4)CC2)C3=O)cc1)N1CCCC1` [Example 63, 2-(1-benzylpiperidin-4-yl)-6-(4-(pyrrolidine-1-carbonyl)phenyl)-3,4-dihydroisoquinolin-1(2H)-one] was 197 to 198 °C; that for `O=C(c1ccc(-c2ccc3c(c2)CCN(C2CCNCC2)C3=O)cc1)N1CCCC1` [Example 64, 2-(piperidin-4-yl)-6-(4-(pyrrolidine-1-carbonyl)phenyl)-3,4-dihydroisoquinolin-1(2H)-one] was > 273 °C; that for `CNC(=O)c1ccc(-c2ccc3c(c2)CCN([C@H]2CCN(C4CCC4)C2)C3=O)cc1.Cl` [Example 90, (R)-4-(2-(1-cyclobutylpyrrolidin-3-yl)-1-oxo-1,2,3,4-tetrahydro-isoquinolin-6-yl)-N-methylbenzamide hydrochloride] was 265 to 266 °C.
